# Source: US10906938B2, “Cell epitopes and combination of cell epitopes for use in the immunotherapy of myeloma and other cancers” (Immatics Biotechnologies GmbH, priority 2015, dated 2021)
# System: U266 cells
# Test: HLA class I ligand presentation upon carfilzomib treatment on U266 cells (LC-MS/MS)
# Type: cell-based, human
# Set-up: key to modulation upon carfilzomib-treatment 24 #1 / modulation upon carfilzomib-treatment 24 #2 / modulation upon carfilzomib-treatment 24 #3 / modulation upon carfilzomib-treatment 48 #1 / modulation upon carfilzomib-treatment 48 #2 / modulation upon carfilzomib-treatment 48 #3: −1: significantly down-modulated; 0: not signifcant/not detected; 1: significantly up-modulated
# Details: U266 cells, vs mock-treated controls; for modulation upon carfilzomib-treatment 24 #1 / modulation upon carfilzomib-treatment 24 #2 / modulation upon carfilzomib-treatment 24 #3: 24 h after carfilzomib treatment (100 nM, 1 h); for modulation upon carfilzomib-treatment 24 #1 / modulation upon carfilzomib-treatment 48 #1: biological replicate #1; for modulation upon carfilzomib-treatment 24 #2 / modulation upon carfilzomib-treatment 48 #2: biological replicate #2; for modulation upon carfilzomib-treatment 24 #3 / modulation upon carfilzomib-treatment 48 #3: biological replicate #3; for modulation upon carfilzomib-treatment 48 #1 / modulation upon carfilzomib-treatment 48 #2 / modulation upon carfilzomib-treatment 48 #3: 48 h after carfilzomib treatment (100 nM, 1 h)
# Procedure: HLA class I and II molecules were isolated using standard immunoaffinity purification as described using the pan-HLA class I specific mAb W6/32, the pan-HLA class II specific mAb T039 and the HLA-DR specific mAB L243 (produced in house).
# HLA ligand extracts were analyzed in 5 technical replicates as described previously. In brief, peptide samples were separated by nanoflow HPLC (RSLCnano, ThermoFisher) using a 50 μm×25 cm PepMap RSLC column (Thermo Fisher) and a gradient ranging from 2.4 to 32.0% acetonitrile over the course of 90 min. Eluting peptides were analyzed in an online coupled LTQ Orbitrap XL mass spectrometer (Thermo Fisher) using a top 5 CID (collision induced dissociation) fragmentation method.
# Data processing was performed as described previously. In brief, the Mascot search engine (Mascot 2.2.04; Matrix Science, London, UK) was implemented to search the human proteome as comprised in the Swiss-Prot database (20,279 reviewed protein sequences, September 2013) without enzymatic restriction. Potential mutated HLA ligands were searched implementing a database containing the human proteome concatenated with proteins containing single amino acid variants (SAVs) listed in the COSMIC database (http://cancer.sanger.ac.uk/cosmic/). Only recurrent SAVs described in 2 or more samples of hematological origin were included. Oxidized methionine was allowed as a dynamic modification. The false discovery rate was estimated using the Percolator algorithm and set to 5%. Peptide lengths were limited to 8-12 amino acids for HLA class I and 12-25 amino acids for HLA class II. Protein inference was disabled, allowing for multiple protein annotations of peptides. HLA annotation was performed using SYFPEITHI [46] or an extended in-house database. Experimental validation of peptide identifications and HLA annotations was performed by mass spectrometric and functional characterization of synthetic peptides for a subset of peptides.
# The inventors quantitatively assessed HLA class I ligand presentation during proteasome inhibitor therapy. Observed was a considerable plasticity of the HLA class I ligandome after treatment with carfilzomib with 17.9±1.1% of MM.1S ligands and 11.2±0.7% of U266 ligands (mean of three biological replicates ±s.d.) showing significant modulation (fold-change ≥4, Po0.01 after Benjamini-Hochberg correction) at t24 h compared with mock-treated controls. Briefly, Cultured MCLs (MM.1S and U266) and primary myeloma samples were incubated with carfilzomib (100 nM, Kyprolis®, available, e.g., from Onyx Pharmaceuticals, Inc.) as an example for a proteasome inhibitor for a 1-h period, followed by three washes in PBS (Gibco) and recultured for additional 24 or 48 h. Controls were incubated with vehicle control (glucose 5%) for 1 h, followed by identical washing and incubation for 24 or 48 h. Experiments were conducted in three biological replicates where indicated.
Sequence,modulation upon carfilzomib-treatment 24 #1,modulation upon carfilzomib-treatment 24 #2,modulation upon carfilzomib-treatment 24 #3,modulation upon carfilzomib-treatment 48 #1,modulation upon carfilzomib-treatment 48 #2,modulation upon carfilzomib-treatment 48 #3
PELGPLPAL,0,0,0,0,0,0
SRGDFVVEY,0,−1,0,0,0,−1
FLWDEGFHQL,0,0,0,0,0,0
KTEVHIRPK,0,0,0,0,0,0
YLYITKVLK,0,0,0,0,0,0
RVNKVIIGTK,0,0,0,0,0,0
ILRDGITAGK,0,0,0,0,0,0
SPRLSLLYL,0,0,0,0,0,0
ALWGRTTLK,0,0,0,0,0,0
RVAKTNSLR,0,0,0,0,0,0
KILKPVKKK,0,0,0,0,0,0
REEGTPLTL,0,0,0,0,0,0
SPALKRLDL,0,0,0,0,0,0
SVYSPVKKK,0,0,−1,0,0,0
AEQEIARLVL,0,0,0,0,0,0
KLPLPLPPRL,0,0,0,0,0,0
GETAFAFHL,0,0,0,0,0,0
SPRQALTDF,0,0,0,0,0,0
RQFWTRTKK,0,0,0,0,0,0
LPPPPHVPL,0,0,0,0,0,0
RPFHGWTSL,0,0,0,0,0,0
LLFPYILPPK,0,0,0,0,0,0
RPRPPVLSV,0,0,0,0,0,0
KPSTKALVL,0,0,0,0,0,0
SPYLRPLTL,0,0,0,0,0,0
KAVNPGRSL,0,0,0,0,0,0
RVFPYSVFY,−1,0,0,−1,−1,−1
IESHPDNAL,0,0,0,0,0,0
APFQGDQRSL,0,1,1,0,1,0
